Test system: 227483-062-R1-J1-PDC complex spheroids with HUVEC/MSC, viability
Test: Anticancer human tumor 227483-062-R1-J1-PDC patient-derived pancreatic carcinoma cell line growth inhibition [CLK]
Conditions: for IC50: curve of first compound; for viability, T/C: stronger effect = lower value; active = viability on the fitted dose curve at most 10% of control; inactive = the rest
Summary of the method: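 Multi-cell-type spheroids combined patient-derived tumor cells with HUVEC endothelial cells and human mesenchymal stem cells. Paired agents were dosed in half-log steps down from about clinical Cmax, or from 10 microM where Cmax was unknown.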

[1] = second compound 0.0316 µM, first compound 0.0316 µM
[2] = second compound 0.0316 µM, first compound 0.1 µM
[3] = second compound 0.0316 µM, first compound 0.316 µM
[4] = second compound 0.0316 µM, first compound 1 µM
[5] = second compound 0.1 µM, first compound 0.0316 µM
[6] = second compound 0.1 µM, first compound 0.1 µM
[7] = second compound 0.1 µM, first compound 0.316 µM
[8] = second compound 0.1 µM, first compound 1 µM
[9] = second compound 0.316 µM, first compound 0.0316 µM
[10] = second compound 0.316 µM, first compound 0.1 µM
[11] = second compound 0.316 µM, first compound 0.316 µM
[12] = second compound 0.316 µM, first compound 1 µM
[13] = second compound 1 µM, first compound 0.0316 µM
[14] = second compound 1 µM, first compound 0.1 µM
[15] = second compound 1 µM, first compound 0.316 µM
[16] = second compound 1 µM, first compound 1 µM
[17] = second compound 3.16 µM, first compound 0.0316 µM
[18] = second compound 3.16 µM, first compound 0.1 µM
[19] = second compound 3.16 µM, first compound 0.316 µM
[20] = second compound 3.16 µM, first compound 1 µM
[21] = second compound 10 µM, first compound 0.0316 µM
[22] = second compound 10 µM, first compound 0.1 µM
[23] = second compound 10 µM, first compound 0.316 µM
[24] = second compound 10 µM, first compound 1 µM
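Also: spheroids exposed to compounds for seven days before readout.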
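For viability, T/C in this document: percent of DMSO vehicle control luminescence as 100% viability.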

CC(Nc1ccc2c(c1)OCCn1cc(N3C(=O)OCC3C(F)F)nc1-2)C(N)=O (centres undefined) + CNC(=O)c1ccc(Nc2nc(OC3CCCC3)c3c(-c4ccc5nc(C)oc5c4)c[nH]c3n2)c(OC)c1
inactive: viability, T/C [1] 105% | viability, T/C [2] 82.3% | viability, T/C [3] 83.9% | viability, T/C [4] 85.5% | viability, T/C (second compound 0.0316 µM, first compound 3.16 µM) 65.4% | viability, T/C (second compound 0.0316 µM, first compound 10 µM) 67.3% | viability, T/C [5] 88% | viability, T/C [6] 78.4% | viability, T/C [7] 66.1% | viability, T/C [8] 70.3% | viability, T/C (second compound 0.1 µM, first compound 3.16 µM) 55.7% | viability, T/C (second compound 0.1 µM, first compound 10 µM) 58.2% | viability, T/C [9] 92.5% | viability, T/C [10] 64.3% | viability, T/C [11] 65.5% | viability, T/C [12] 52.4% | viability, T/C (second compound 0.316 µM, first compound 3.16 µM) 56.9% | viability, T/C (second compound 0.316 µM, first compound 10 µM) 49.7% | viability, T/C [13] 60.6% | viability, T/C [14] 45.1% | viability, T/C [15] 46.9% | viability, T/C [16] 47.7% | viability, T/C (second compound 1 µM, first compound 3.16 µM) 39.7% | viability, T/C (second compound 1 µM, first compound 10 µM) 41.9% | viability, T/C [17] 45% | viability, T/C [18] 49.8% | viability, T/C [19] 32% | viability, T/C [20] 33.4% | viability, T/C (second compound 3.16 µM, first compound 3.16 µM) 35.4% | viability, T/C (second compound 3.16 µM, first compound 10 µM) 25.9% | viability, T/C [21] 38.6% | viability, T/C [22] 46.2% | viability, T/C [23] 37.7% | viability, T/C [24] 27.8% | viability, T/C (second compound 10 µM, first compound 3.16 µM) 32.9% | viability, T/C (second compound 10 µM, first compound 10 µM) 24.9%
< 31.6 nM: IC50 (second compound 3.16 µM) | IC50 (second compound 10 µM)
> 10000 nM: IC50 (second compound 0.0316 µM) | IC50 (second compound 0.1 µM) | IC50 (second compound 0.316 µM)
73.3 nM: IC50 (second compound 1 µM)

COc1c(OCCCN2CCOCC2)ccc2c3n(c(=NC(=O)c4cnc(N)nc4)nc12)CCN3 + CNC(=O)c1ccc(Nc2nc(OC3CCCC3)c3c(-c4ccc5nc(C)oc5c4)c[nH]c3n2)c(OC)c1
80.7 nM: IC50 (second compound 0.1 µM)
> 1000 nM: IC50 (second compound 0.0316 µM)
< 3.16 nM: IC50 (second compound 10 µM)
inactive: viability, T/C (second compound 0.0316 µM, first compound 0.00316 µM) 94.9% | viability, T/C (second compound 0.0316 µM, first compound 0.01 µM) 93.6% | viability, T/C [1] 79.5% | viability, T/C [2] 69% | viability, T/C [3] 70% | viability, T/C [4] 51.2% | viability, T/C (second compound 0.1 µM, first compound 0.00316 µM) 96% | viability, T/C (second compound 0.1 µM, first compound 0.01 µM) 89.5% | viability, T/C [5] 56.2% | viability, T/C [6] 58.7% | viability, T/C [7] 44.1% | viability, T/C [8] 41% | viability, T/C (second compound 0.316 µM, first compound 0.00316 µM) 87.4% | viability, T/C (second compound 0.316 µM, first compound 0.01 µM) 55.1% | viability, T/C [9] 59.8% | viability, T/C [10] 52.2% | viability, T/C [11] 37.9% | viability, T/C [12] 32.2% | viability, T/C (second compound 1 µM, first compound 0.00316 µM) 55.9% | viability, T/C (second compound 1 µM, first compound 0.01 µM) 56.7% | viability, T/C [13] 39.9% | viability, T/C [14] 32.2% | viability, T/C [15] 26.3% | viability, T/C [16] 20.6% | viability, T/C (second compound 3.16 µM, first compound 0.00316 µM) 50.3% | viability, T/C (second compound 3.16 µM, first compound 0.01 µM) 48.3% | viability, T/C [17] 34.9% | viability, T/C [18] 22.3% | viability, T/C [19] 18.4% | viability, T/C [20] 14.8% | viability, T/C (second compound 10 µM, first compound 0.00316 µM) 43.1% | viability, T/C (second compound 10 µM, first compound 0.01 µM) 36.9% | viability, T/C [21] 30.3% | viability, T/C [22] 21.2% | viability, T/C [23] 18% | viability, T/C [24] 16.3%
61.2 nM: IC50 (second compound 0.316 µM)
4.26 nM: IC50 (second compound 3.16 µM)
10.6 nM: IC50 (second compound 1 µM)

— PubChem BioAssay AID2060623 (Molecular Pharmacology Branch, DTP, NCI, 2025)
